Like-named read-outs stand apart in the source and are kept apart here.
Experiments:
[1] = test system: P. falciparum male gametocytes; experiment: P. falciparum Dual Gamete Formation Assay (PfDGFA), male readout (exflagellation); format: cell-based, Plasmodium falciparum NF54; details: for Selectivity Ratio M: HepG2 Tox50 versus male IC50; for inhibition at 2 µM / IC50: Plasmodium falciparum; for inhibition at 2 µM: 24h preincubation with gametocytes; for IC50: PfDGFA, 24 h incubation with gametocytes before induction, exflagellation readout, read-out: Male IC50
Protocol: (§1) P. falciparum NF54 (originally isolated from an imported malaria case in the Netherlands in the 1980s; BEI Resources, cat. No. MRA-1000) strain asexual parasites were maintained between 0.3–5% parasitaemia by regular passage in complete culture medium (RPMI supplemented with 25 mM HEPES, 50 μg ml^−1 hypoxanthine, 4.8 g l^−1 NaHCO3, 2mM L-glutamine, 5% pooled type AB serum, 0.5% Albumax II (Gibco)) at 4% haematocrit in washed whole blood (National Blood and Transfusion Service or Centro de Transfusiones de la Comunidad de Madrid CTCM) under a 1% O2/3% CO2/96% N2 environment. Gametocytes were induced by seeding culture flasks at 2% parasitaemia/4% haematocrit and subjecting them to daily medium changes for 14 days whilst maintaining a temperature of 37°C at all times. On Day 14, the maturity of gametocytes was assessed by quantifying male gametogenesis (exflagellation). A 20 μl sample of gametocyte culture was mixed with equal volume of ookinete medium (complete culture medium supplemented with 0.1 μM xanthurenic acid) at room temperature and transferred to a haemocytometer. After 20 min at room temperature, exflagellation was accurately quantified as described in Delves et al. 2016 [17].
(§2) The Pf DGFA was performed as described in Delves et al. 2016 [17]. […] Plates were then incubated for 24 h at 37°C in a humidified box under a 1% O2/3% CO2/96% N2 gas mix. Gametogenesis was triggered by addition of 10 μl per well of ookinete medium + 0.27 μg ml^-1 Cy3-labelled anti-Pfs25 antibody. Plates were incubated on a metal block at 4°C for 4 min to ensure even cooling, then 28°C for a further 4 min. Exflagellation was recorded by capturing 10 frames over 1 s under brightfield illumination using a x4 objective with a 1.5x zoom (effectively x6) attached to an automated Nikon Ti fluorescence microscope. After recording exflagellation, plates were incubated for a further 24 h in the dark at 28°C to ensure maximal expression of Pfs25 by female gametes. The plates were then returned to the microscope and female gametes imaged at x6 using fluorescence microscopy.
(§3) Exflagellation centres and female gametes were quantified using custom image analysis pipelines developed within ICY Bioimage Analysis (https://icy.bioimageanalysis.org/).

[2] = test system: P. falciparum female gametocytes; experiment: P. falciparum Dual Gamete Formation Assay (PfDGFA), female readout (Pfs25-positive female gametes); format: cell-based, Plasmodium falciparum NF54; details: for Selectivity ratio F: HepG2 Tox50 versus female IC50; for inhibition at 2 µM / IC50: Plasmodium falciparum; for inhibition at 2 µM: 24h preincubation with gametocytes; for IC50: PfDGFA, 24 h incubation with gametocytes before induction, female gamete readout, read-out: Female IC50
Protocol: as §1, §2, §3

[3] = PfDGFA at 2µM, 24h preincubation with gametocytes prior to induction of gametogenesis, replicate R1
[4] = PfDGFA at 2µM, 24h preincubation with gametocytes prior to induction of gametogenesis, replicate R3
[5] = PfDGFA at 2µM, 24h preincubation with gametocytes prior to induction of gametogenesis, replicate R4
[6] = PfDGFA at 2µM, 24h preincubation, average of replicates
[7] = 2µM, 24h preincubation with gametocytes prior to induction of gametogenesis, average of replicates
[8] = 2µM, 24h preincubation with gametocytes prior to induction of gametogenesis, replicate R1
[9] = 2µM, 24h preincubation with gametocytes prior to induction of gametogenesis, replicate R4
[10] = 2µM, 24h preincubation with gametocytes prior to induction of gametogenesis, replicate R3
[11] = PfDGFA at 2µM, average of replicates, read-out: Average inhibition male (%)
[12] = PfDGFA at 2µM, replicate R1, read-out: % inhibition male (individual replicates) R1
[13] = PfDGFA at 2µM, replicate R2, read-out: % inhibition male (individual replicates) R2
[14] = PfDGFA at 2µM, replicate R3, read-out: % inhibition male (individual replicates) R3
[15] = PfDGFA at 2µM, replicate R4, read-out: % inhibition male (individual replicates) R4
[16] = number of replicates with >50% inhibition in the male readout, 2µM
[17] = PfDGFA at 2µM, average of replicates, read-out: Average inhibition female (%)
[18] = PfDGFA at 2µM, replicate R1, read-out: % inhibition female (individual replicates) R1
[19] = PfDGFA at 2µM, replicate R2, read-out: % inhibition female (individual replicates) R2
[20] = PfDGFA at 2µM, replicate R3, read-out: % inhibition female (individual replicates) R3
[21] = PfDGFA at 2µM, replicate R4, read-out: % inhibition female (individual replicates) R4
[22] = number of replicates with >50% inhibition in the female readout, 2µM

## CCCCOc1ccc(N2C(N)=NC(N)=NC2(C)C)cc1.Cl [TCMDC-124279]
[1]; [3]
  % inhibition male (individual replicates) R1: -7.3%
[1]; [4]
  % inhibition male (individual replicates) R3: -37.1%
[1]; [5]
  % inhibition male (individual replicates) R4: -28.5%
[1]; [6]
  Average inhibition male (%): -17.0%
[2]; [3]
  % inhibition female (individual replicates) R1: 2.1%
[2]; [4]
  % inhibition female (individual replicates) R3: -37.2%
[2]; [5]
  % inhibition female (individual replicates) R4: 21.1%
[2]; [6]
  Average inhibition female (%): -3.8%

## CCOC(=O)c1cc(C(=O)OC)c2ccccn12 [TCMDC-124299]
[1]; [3]
  % inhibition male (individual replicates) R1: 15.7%
[1]; [4]
  % inhibition male (individual replicates) R3: -23.4%
[1]; [5]
  % inhibition male (individual replicates) R4: -23.1%
[1]; [6]
  Average inhibition male (%): -9.0%
[2]; [3]
  % inhibition female (individual replicates) R1: 6.3%
[2]; [4]
  % inhibition female (individual replicates) R3: -21.8%
[2]; [5]
  % inhibition female (individual replicates) R4: 0.07%
[2]; [6]
  Average inhibition female (%): -2.7%

## [O-][S+]1c2ccccc2Sc2ccccc21 [TCMDC-124300]
[1]; [3]
  % inhibition male (individual replicates) R1: 13.3%
[1]; [4]
  % inhibition male (individual replicates) R3: 4.0%
[1]; [5]
  % inhibition male (individual replicates) R4: -37.1%
[1]; [6]
  Average inhibition male (%): -9.5%
[2]; [3]
  % inhibition female (individual replicates) R1: 9.4%
[2]; [4]
  % inhibition female (individual replicates) R3: -8.0%
[2]; [5]
  % inhibition female (individual replicates) R4: -1.0%
[2]; [6]
  Average inhibition female (%): -3.0%

## CCCCNS(=O)(=O)c1ccc(NC(=O)c2cc([N+](=O)[O-])ccc2Cl)cc1 [TCMDC-124345]
[1]
  Selectivity Ratio M: 267.48
  IC50: 370 nM
[1]; 2µM, average of replicates, read-out: Average inhibition male (%)
  inhibition at 2 µM: 100%
[1]; 2µM, replicate R1, read-out: % inhibition male (individual replicates) R1
  inhibition at 2 µM: 101%
[1]; 2µM, replicate R2, read-out: % inhibition male (individual replicates) R2
  inhibition at 2 µM: 102%
[1]; 2µM, replicate R3, read-out: % inhibition male (individual replicates) R3
  inhibition at 2 µM: 100%
[1]; 2µM, replicate R4, read-out: % inhibition male (individual replicates) R4
  inhibition at 2 µM: 98.2%
[2]
  Selectivity ratio F: 13.22
  IC50: 7560 nM
[2]; 2µM, average of replicates, read-out: Average inhibition female (%)
  inhibition at 2 µM: 20%
[2]; 2µM, replicate R1, read-out: % inhibition female (individual replicates) R1
  inhibition at 2 µM: 27.9%
[2]; 2µM, replicate R2, read-out: % inhibition female (individual replicates) R2
  inhibition at 2 µM: 30.3%
[2]; 2µM, replicate R3, read-out: % inhibition female (individual replicates) R3
  inhibition at 2 µM: 6.6%
[2]; 2µM, replicate R4, read-out: % inhibition female (individual replicates) R4
  inhibition at 2 µM: 15%

## CC(=O)Nc1ccc(Nc2c3ccccc3nc3ccccc23)cc1 [TCMDC-124356]
[1]; [7]
  Average inhibition male (%): 30.9%
[1]; [8]
  % inhibition male (individual replicates) R1: 50.9%
[1]; [9]
  % inhibition male (individual replicates) R4: -15.9%
[1]; 2µM, 24h preincubation, hits selected on >50% inhibition in the male readout across replicates
  HitlevelM: 2
[1]; PfDGFA at 2µM, 24h preincubation, hit = >50% inhibition in male or female readout in at least 3 replicates, 0 = no class assigned
  Activity: 0
[2]; [7]
  Average inhibition female (%): 14.4%
[2]; [8]
  % inhibition female (individual replicates) R1: 47.3%
[2]; [10]
  % inhibition female (individual replicates) R3: 8.8%
[2]; [9]
  % inhibition female (individual replicates) R4: 12.0%
[2]; 2µM, 24h preincubation, hits selected on >50% inhibition in the female readout across replicates
  HitlevelF: 0

## CC(C)(C)Nc1cc(C2CC2)nc(-c2ccccn2)n1 [TCMDC-124453]
[1]; [7]
  Average inhibition male (%): 8.7%
[1]; [8]
  % inhibition male (individual replicates) R1: 15.7%
[1]; [10]
  % inhibition male (individual replicates) R3: 8.7%
[1]; [9]
  % inhibition male (individual replicates) R4: 17.6%
[1]; 2µM, 24h preincubation, number of replicates with >50% inhibition in the male readout
  HitlevelM: 0
[2]; [7]
  Average inhibition female (%): 32.5%
[2]; [8]
  % inhibition female (individual replicates) R1: 36.3%
[2]; [10]
  % inhibition female (individual replicates) R3: 27.2%
[2]; [9]
  % inhibition female (individual replicates) R4: 34.1%
[2]; 2µM, 24h preincubation, number of replicates with >50% inhibition in the female readout
  HitlevelF: 0

## Cc1ccc(-c2nnc3c4ccccc4c(C)nn23)cc1S(=O)(=O)N1CCN(CCO)CC1 [TCMDC-124482]
[1]; [3]
  % inhibition male (individual replicates) R1: 14.3%
[1]; [4]
  % inhibition male (individual replicates) R3: -2.0%
[1]; [5]
  % inhibition male (individual replicates) R4: 34.9%
[1]; [6]
  Average inhibition male (%): 14.9%
[2]; [3]
  % inhibition female (individual replicates) R1: 11.9%
[2]; [4]
  % inhibition female (individual replicates) R3: -40.2%
[2]; [5]
  % inhibition female (individual replicates) R4: 14.7%
[2]; [6]
  Average inhibition female (%): -3.6%

## Cn1c(Sc2ncnc3sccc23)nc2ccccc21 [TCMDC-124514]
[1]
  Selectivity Ratio M: 138.65
  IC50: 720 nM
[1]; [11]
  inhibition at 2 µM: 74.4%
[1]; [12]
  inhibition at 2 µM: 82.1%
[1]; [13]
  inhibition at 2 µM: 75.9%
[1]; [14]
  inhibition at 2 µM: 86.7%
[1]; [15]
  inhibition at 2 µM: 52.9%
[1]; [16]
  HitlevelM: 4
[2]
  Selectivity ratio F: 179.15
  IC50: 560 nM
[2]; [17]
  inhibition at 2 µM: 56.9%
[2]; [18]
  inhibition at 2 µM: 48.2%
[2]; [19]
  inhibition at 2 µM: 73.8%
[2]; [20]
  inhibition at 2 µM: 37.5%
[2]; [21]
  inhibition at 2 µM: 68.1%
[2]; [22]
  HitlevelF: 2

## O=C(NC1CCN(Cc2ccccc2)CC1)c1cc(C(=O)NC2CCN(Cc3ccccc3)CC2)cc(C(=O)NC2CCN(Cc3ccccc3)CC2)c1 [TCMDC-124568]
[1]
  Selectivity Ratio M: 12.97
  IC50: 7710 nM
[1]; [11]
  inhibition at 2 µM: 80%
[1]; [12]
  inhibition at 2 µM: 85%
[1]; [13]
  inhibition at 2 µM: 82%
[1]; [14]
  inhibition at 2 µM: 68.9%
[1]; [15]
  inhibition at 2 µM: 84.2%
[1]; [16]
  HitlevelM: 4
[2]
  Selectivity ratio F: 10.00
  IC50: > 10000 nM
[2]; [17]
  inhibition at 2 µM: 37.6%
[2]; [18]
  inhibition at 2 µM: 24.6%
[2]; [19]
  inhibition at 2 µM: 60.5%
[2]; [20]
  inhibition at 2 µM: 22.2%
[2]; [21]
  inhibition at 2 µM: 43.3%
[2]; [22]
  HitlevelF: 1

Reference: paper PMC10584170, “Machine learning-based phenotypic imaging to characterise the targetable biology of Plasmodium falciparum male gametocytes for the development of transmission-blocking antimalarials” (PLOS Pathogens, 2023)
